Data set [1] concerns ob/ob mice. Kind of data set: Fasting blood glucose in ob/ob mice, several heptacyclic compounds, 8 days. It counts as in vivo. Here is the method:
Genetic spontaneous diabetes ob/ob mice were purchased from Jackson (USA), and maintained in a SPF facility (temperature: 22-24° C., humidity: 45-80%, illumination: 150-300 Lx, 12/12-hour light/dark cycle). Fasting blood glucose was determined for 3 days continuously when the mice were 7 weeks old. The mice were grouped into the treatment group and the control group (6 animals per group) according to the results determined. The treatment groups were administered orally with compound E9, G0 and F7 (psoromic acid) (100 mg/kg), and the control group was administered orally with a solution of 0.1% Tween 80 (blank control), once daily for 8 days. Fasting blood glucose in mice was determined at the end of experiment.

The nature of data set [2]: Properties of psoromic acid (solubility, acidity, stability). In kind it is physicochemical. Here is the method:
As a preferred embodiment of the present invention, the compound of the present invention is psoromic acid, F7, a white needle crystal, which is odorless, faintly bitter, with melting point of 265-266° C.

Data set [3] deals with diet-induced obese (DIO) mice. In words: Effect of F7 on body weight of diet-induced obese mice. It counts as in vivo, C57BL/6J mice. Conditions: for Body weight: oral 50 mg/kg daily; for Body weight reduction compared with the model control group: oral 50 mg/kg. Here is the method: Male C57BL/6J mice were maintained a SPF facility (temperature: 22-24° C., humidity: 45-80%, illumination: 150-300 Lx, 12/12-hour light/dark cycle). When the mice were 4 weeks old, they were fed with a high-fat diet (purchased from Research Diets Inc. (USA), D12492i, fat content is 60%). After 12 weeks, diet-induced obese (DIO) mice model was established. Another group of mice fed with normal diet (D12450Bi, fat content is 10%) was used as a normal control group. The DIO mice were divided into two group according to body weights, and administrated orally F7 (50 mg/kg) or 0.1% Tween80 (the model control group) respectively, every afternoon just before black out for 5 weeks. The body weights of mice were measured daily, and the effect of Compound F7 on body weight was observed.

Structures are written as SMILES.

In the case of `COc1cc(C(=O)O)c2c(c1C)OC(=O)c1c(C)cc(O)c(C=O)c1O2` [Compound F7, 4-Formyl-3-hydroxy-8-methoxy-1,9-dimethyl-11-oxo-11H-dibenzo[b,e][1,4]dioxepine-6-carboxylic acid], the “Fasting Blood Glucose” value in data set [1] (before administration) is 11.94 ± 1.50 mM; in data set [1] (oral 100 mg/kg once daily, after 8 days treatment), 8.12 ± 1.04 mM. Also, the “Fasting blood glucose change in words” value in data set [1] (dosed continuously for 8 days, P<0.05) is on record as “reduced statistically significant”. The “Solubility in organic solvents” value in data set [2] (DMSO, ethanol, acetone and ethyl acetate) is listed as “soluble in organic solvents”. The “pH (acidic)” value in data set [2] (in water) is reported as 3-4. In data set [2] (room temperature), the Stability result is on record as “stable at room temperature”. In addition, the Solubility in water result in data set [2] (water) was “slightly soluble in water”. Also, the Body weight in data set [3] (0 day) turned out to be 39.2 ± 3.8 g; in data set [3] (7 day), 36.4 ± 3.8 g; in data set [3] (14 day), 36.5 ± 4.2 g; in data set [3] (21 day) it was 36.2 ± 3.9 g; in data set [3] (28 day), 36.1 ± 2.6 g; in data set [3] (35 day) it was 35.8 ± 2.0 g. The “Body weight reduction compared with the model control group” value is listed as 2 g in data set [3] (1 week after administration) and 4.5 g in data set [3] (5 weeks after administration).

Source of the values: US8158623B2, “Heptacyclic compounds and the pharmaceutical uses thereof for preventing and treating diabetes and metabolic syndrome” (Shanghai Institute of Materia Medica Chinese Academy of …, priority 2007, dated 2012).
